Experimental data published in patent US12714094B2, “Cryoprotectant polymers and methods of making and using thereof” (BOARD OF REGENTS, THE UNIVERSITY OF TEXAS SYSTEM, priority 2019, dated 2026).
“Also recorded” adds a separate entry of the source.

Experiment: Differential scanning calorimetry of polymer/water and polymer/PBS solutions (ice formation, Tg, phase behavior)
Format: physicochemical
Settings: 50 wt % aqueous solution
Experimental: Differential Scanning calorimetry (DSC). DSC was used to determine the Tg of pure polymer and aqueous polymer solutions. PMGS is hygroscopic, so PMGS batches were dried in vacuo for at least four hours prior to sample preparation. Polymer solutions were made by mixing dry PMGS with phosphate buffer solution (PBS) and hand-mixing until a homogeneous solution was achieved. DSC samples were prepared by loading TZero pans with at least 5 mg of each solution and sealing them with hermetic lids to prevent evaporation. DSC samples of pure polymer were typically scanned from −20 to 120° C. four times, and the Tg was determined from the last heating cycle. DSC samples of polymer solutions were cooled to −90 and heated to 20° C., and the Tg was determined on the heating cycle.
Differential scanning calorimetry. For PMGS/water mixtures, 6-8 mg of solution was placed in an aluminum DSC pan. The samples were cooled at 1° C./min to −90° C., held at −90° C. for 1 minute, then heated to 20° C. at 10° C./min. For neat PMGS, the polymer was dried overnight under vacuum, then the polymer was removed from the vacuum and 5-10 mg was immediately transferred to an aluminum DSC pan. The sample was heated to 150° C. at 10° C./min, held for 1 min, then cooled to −10° C. at 10° C./min and held for 1 min. […]

Compound: C[S+](C)[O-] [DMSO, dimethyl sulfoxide]
- ice formation (in words): No ice formed; also recorded: enough to arrest ice formation in solution
